This experiment deals with xylanase from Bacillus circulans (BCX) (Niallia circulans, UniProt P09850). Kind of experiment: NMR titration, 1H-15N HSQC 2D lineshape fit. It is filed as binding. To be noted: 25 mM sodium acetate, pH 5.8, 6% D2O, 20 °C; active site -1/-2 subsites.

`OC1OC[C@@H](O[C@@H]2OC[C@@H](O)[C@H](O)[C@H]2O)[C@H](O)[C@H]1O` (stereo partly shown) [X2, xylobiose] gave a Kd of 10 mM.

Values taken from publication doi:10.1101/815415v1 (biorxiv, 2019).
